Test results published in patent publication US6830310B2, “Detectable markers in cationic polymeric fixers” (Hewlett-Packard Development Company, L.P., priority 2002, dated 2004).

Legend:
[1] = Color of the fixer solution in the presence of the compound; format: physicochemical
Text: 3) “Color” refers to the color of the fixer solution in the presence of the compound.

[2] = Solubility of indicator in polymonoguanadine fixer; details: for Solubility @ 0.1%: 0.1% in 4 wt % polymonoguanadine fixer; for Solubility @ 0.01 %: 0.01% in 4 wt % polymonoguanadine fixer
Text: Fixer solutions were made by mixing a water based fixer containing a polymonoguanadine cationic polymer with an IR or UV absorber indicator.
2) The solubility is based on the solubility of the compound in a 4 wt % polymonoguanadine fixer.

| Compound | Color [1] | Solubility @ 0.1% [2] | Solubility @ 0.01 % [2] | Solubility in the fixer vehicle ([2]; fixer vehicle that is mostly water) | Solubility in polymonoguanadine thermal inkjet fixer ([2]; 750 ppm) | Solubility (general statement) ([2]; in water / fixer) |
| --- | --- | --- | --- | --- | --- | --- |
| CN(C)c1ccc(C=Cc2ccccn2)cc1 [2-[4-(Dimethylamino)styryl]pyridine] | Orange | No | – | – | – | – |
| CCN(CC)CCc1c(C)c2ccc(O)cc2oc1=O.Cl [3-[2-(diethylamino)ethyl]-7-hydroxy-4-methylcoumarin hydrochloride] | – | – | Yes | – | – | – |
| Nc1ccc(C(=O)O)cc1 [4-Aminobenzoic acid (PABA), 4-Aminobenzoic acid] | Clear | Yes | Yes | – | – | – |
| Cc1cc(=O)oc2cc(O)c(O)cc12 [4-Methylesculetin] | Clear | No | No | – | – | – |
| CCN(CC)c1ccc2c(C)cc(=O)oc2c1 [7-Diethylamino-4-methyl coumarin, 7-diethylamino-4-methyl coumarin] | – | Yes | Yes | – | – | – |
| Cc1cc(O)nc2cc(N)ccc12 [Carbostyril 124] | Clear | No | Yes | – | – | – |
| CCN(CC)c1ccc2cc(-c3nc4ccccc4[nH]3)c(=O)oc2c1 [Coumarin 7] | Yellow | No | No | – | – | – |
| CN(C)c1ccc2c(C(F)(F)F)cc(=O)oc2c1 [Coumarin 152] | – | No | No | – | – | – |
| Cc1ccc2nc(-c3ccc(N=NNc4ccc(-c5nc6ccc(C)c(S(=O)(=O)[O-])c6s5)cc4)cc3)sc2c1S(=O)(=O)[O-].[Na+].[Na+] [Direct Yellow 9] | Yellow | No | – | – | – | – |
| O=S(=O)([O-])c1cc(Nc2nc(Nc3ccccc3)nc(N(CCO)CCO)n2)ccc1/C=C/c1ccc(Nc2nc(Nc3ccccc3)nc(N(CCO)CCO)n2)cc1S(=O)(=O)[O-].[Na+].[Na+] [FluorescentBrightner28] | Clear | – | – | – | – | – |
| CCN1/C(=C/C=C2\CCC(/C=C/c3sc4ccc(Cl)cc4[n+]3CC)=C2N(c2ccccc2)c2ccccc2)Sc2ccc(Cl)cc21.[O-][Cl+3]([O-])([O-])[O-] [IR140] | Pale Blue | No | No | – | – | – |
| CC1(C)C(/C=C/C=C/C=C/C=C2\N(CCCCS(=O)(=O)O)c3ccc4ccccc4c3C2(C)C)=[N+](CCCCS(=O)(=O)[O-])c2ccc3ccccc3c21 [Indocyanine Green] | Green | No | No | – | – | – |
| Cc1cc2nc3[nH]c(=O)[nH]c(=O)c3nc2cc1C [Lumichrome] | Clear | No | No | – | – | – |
| CCOc1ccc2c(ccc(/C=C/c3cccc([N+](=O)[O-])c3)[n+]2C)c1.COS(=O)(=O)[O-] [Pinacryptol Yellow] | Yellow | No | – | – | – | – |
| C(=Cc1ccccc1)c1ccccc1 [Stilbene] | – | – | – | not soluble | – | – |
| Cc1ccc2c(c1)sc(-c1ccc(N(C)C)cc1)[n+]2C.[Cl-] [Thioflavin T] | Yellow | No | Yes | – | – | – |
| CCN=C1C=CC(=C(c2ccc(N(CC)CC)cc2)c2ccc(N(CC)CC)cc2)c2ccccc21.Cl [Victoria Blue BO] | Blue | – | Yes | – | – | – |
| CN1/C(=C/C=C/C=C/C=C/C2=[N+](C)c3ccccc3C2(C)C)C(C)(C)c2ccccc21.[I-] [tricarbocyanine, 1,1′,3,3,3′,3′-Hexamethylindotricarbocyanine iodide] | – | – | – | – | not soluble | only limited solubility |
| Variamine Blue | Yellow | Yes | Yes | – | – | – |
